Several values for one entry are separate records, joined by “and”; a condition that tells them apart may be missing. Identical values can stand only once.
How the values were obtained:
AMO-1 cells [1] = test: CD38 surface expression after lenalidomide (FACS, ABC); format: cell-based, human
Method: (§1) Cells were stained with a directly labelled QuantiBRITE™ CD38-PE antibody (Becton Dickinson GmbH, Clone HB7, CAT #342371), which is specific for CD38. The “Antibodies Bound Per Cell” (ABC's) were determined using the flow cytometry based QuantiBRITE™ system, which measures the geometric mean (GeoMean) per cell. Conversion of measured GeoMean into correlating ABC amount per cell was done with GraphPad PRISM™ software. The ABC values are assumed to correlate with the number of CD38 molecules per cell, since QuantiBRITE™ CD38-PE carries one PE molecule per antibody.
(§2) To determine whether lenalidomide induced upregulation of CD38 in the multiple myeloma and plasmacytoma cells of Table 1, the cell lines were incubated with 100 μM lenalidomide and, subsequently, CD38 surface expression was analyzed by FACS.
(§3) Around 2×10^5 cells of each of the cells lines of Table 1 were plated on 48-well dishes in standard RPMI medium. Lenalidomide, purchased from Selleck Chemicals (LLC S1029, CAS No. 191732-6; Batch: S10290), was applied to respective wells to a final concentration of 100 μM in a volume of 750 μl containing 20% FCS and 0.1% DMSO.
(§4) Cells were resuspended by gentle pipetting and 250 μl of cell suspension per incubation period were transferred into a well of a 96-well round bottom plate. Cells were washed by centrifugation for 1 min at 700×g and were resuspended in 150 μl of cold FACS buffer (1×PBS supplemented with 3% FCS). Cells were again pelleted down by centrifugation and were resuspended in 150 μl of FACS buffer containing 15 μg/ml of anti-CD38 antibody (MOR202, IgG1) or control antibody MOR03207 and incubated for 1 h on ice. Cells were then washed 3 times by centrifugation and were resuspended in FACS buffer supplemented with PE-labeled secondary antibody (PE-Fab2 fragment, goat anti-human IgG. Fc-fragment specific; Jackson Immuno Research; CAT: 109-116-098; Lot: 80938). Cells were incubated for 45 minutes on ice, then washed 3 times by centrifugation and resuspended in FACS buffer. The cell suspensions were then subjected to FACS analysis using a FACS array device.
(§5) Additionally, the affect of lenalidomide on the CD38 expression of AMO-1 cells is shown in FIG. 1, and the affect of lenalidomide on the CD38 expression of NCI-H929 cells is shown in FIG. 5.

LP-1 cells = test: as above; format: cell-based, human
Method: as §1, §2, §3, §4, §5

NCI-H929 cells = test: as above; format: cell-based, human
Method: as §1, §2, §3, §4, §5

OPM-2 cells = test: as above; format: cell-based, human
Method: as §1, §2, §3, §4, §5

RPMI-8226 cells = test: as above; format: cell-based, human
Method: as §1, §2, §3, §4, §5

AMO-1 cells [2] = test: Cell proliferation, XTT-based assay; parameters: species or system human
Method: Cells were collected and distributed in 96-well plates with 5000 cells per well.
After incubation, plates were analyzed for cell proliferation in a quantitative colorimietric XTT-based assay using the cell proliferation kit II (ROCHE, Cell Proliferation Kit II, Cat. No.: 11465015001). For subsequent measurement plates were subjected to Tecan Genios Reader and absorbance at 492 nm was detected.
Increasing amounts of Bortezomib (Velcade®, Lot: No.: #9AZSY00) were applied to AMO-1, LP-1, NCI-H929 and RPMI-8226 cells and incubated for 24 h, 48 h and 72 h. After incubation, period plates were analyzed for cell proliferation in a quantitative colorimietric XTT-based assay using the cell proliferation kit II (ROCHE, Cell Proliferation Kit II, Cat. No.: 11465015001). For subsequent measurement, plates were subjected to Tecan Genios Reader and absorbance at 492 nm was detected.

AMO-1 cells [3] = test: ADCC with human PBMCs, flow cytometry (CalceinAM/PI); format: cell-based
Method: For Tables 3b-c, “Theoretical Combination” represents the addition of the values of MOR202 alone and the values of LEN alone. The normalized data of Table 3b is calculated as follows. Therefore, the specific killing values of Table 3b are calculated by subtracting the values of the controls. Then the specific killing values are compared to the MOR202 group, which is set as 1.
The constant m determines the shape of the dose-effect curve. We used Excel Fit software to carry out a linear regression calculation to estimate the parameters m and D50.
The CI-isobol method provides a quantitative assessment of synergism between drugs. A combination index (CI) is estimated from dose-effect data of single and combined drug treatments. […] Formally, the combination index (CI) of a combined drug treatment is defined as CI=D1/Dx1+D2/Dx2
The data is analysed in the following way: Antagonistic(AB)/C<(A/C)×(B/C) Additive(AB)/C=(A/C)×(B/C) Synergistic(AB)/C>(A/C)×(B/C) where A is the treatment with LEN alone; B is the treatment with MOR202 alone; C is response to the treatment vehicle; AB is combination of treatments A and B.

[4] = system: NCI-H929 human multiple myeloma cells; test: NCI-H929 bone lysis SCID mouse MM model, MOR202 and LEN (MicroCT); format: in vivo, SCID mice
Method: 63 SCID mice were inoculated on Day (−7) orthotopically into the right tibia with 2.5×10^6 NCI-H929 MM cells (in 5 μL) in order to induce bone lysis. Lenalidomide (Groups A and D) and Vehicle Control (Group C) treatments started on Day (−1). MOR202 treatments (Groups B and D) started on Day 0. Treatment continued for 6 weeks.
MicroCT Scan was used to assess bone lysis and included […] analysis comprising Total Bone Volume (TBV), Trabecular Bone Volume (Tb.BV), Trabecular Pattern Factor (Tb.Pf) and Structure Model Index (SMI). Table 10 defines each of these parameters.

RAMOS cells = test: RAMOS non-Hodgkin tumor SCID mouse survival model, MOR202 and lenalidomide; format: in vivo, SCID mice
Method: Sixty-eight female SCID mice were pre-treated with Cyclophosphamide (75 mg/kg, i.p., twice daily) for two days prior to RAMOS cell inoculation (Day −5 and −4). On the day of inoculation (Day −3), all mice were inoculated with 1×10^6 RAMOS cells each intravenously into the tail vein. Sixty-four of the mice were randomised by body weight into eight groups of eight.
The study continued for 98 days and the measured endpoint was survival.

[5] = LEN 50 mg/kg p.o. once daily, MOR202 3 mg/kg i.p. 3 times weekly, 6 weeks, lower = less bone lysis
[6] = group mean of 10 mice, LEN 50 mg/kg p.o., MOR202 3 mg/kg i.p., 6 weeks

## Nc1cccc2c1CN(C1CCC(=O)NC1=O)C2=O (stereo not drawn) [LEN, lenalidomide]
AMO-1 cells [1]; 100 μM lenalidomide
  Absolute number of ABC (CD38 expression) LEN (extrapolated): 115,000 ABC
AMO-1 cells [1]; 100 μM lenalidomide vs basal
  Absolute number of ABC (CD38 expression) INCREASE: 90,000 ABC
  Fold increase (CD38 expression): 4.5 fold
LP-1 cells; 100 μM lenalidomide
  Absolute number of ABC (CD38 expression) LEN (extrapolated): 162,500 ABC
  Effect (on CD38 expression): No
LP-1 cells; 100 μM lenalidomide vs basal
  Absolute number of ABC (CD38 expression) INCREASE: 37,500 ABC
  Fold increase (CD38 expression): 1.3 fold
NCI-H929 cells; 100 μM lenalidomide
  Absolute number of ABC (CD38 expression) LEN (extrapolated): 390,000 ABC
  Effect (on CD38 expression): Weak
NCI-H929 cells; 100 μM lenalidomide vs basal
  Absolute number of ABC (CD38 expression) INCREASE: 195,000 ABC
  Fold increase (CD38 expression): 2.0 fold
OPM-2 cells; 100 μM lenalidomide
  Absolute number of ABC (CD38 expression) LEN (extrapolated): 98,800 ABC
OPM-2 cells; 100 μM lenalidomide vs basal
  Absolute number of ABC (CD38 expression) INCREASE: 60,800 ABC
  Fold increase (CD38 expression): 2.6 fold
RPMI-8226 cells; 100 μM lenalidomide
  Absolute number of ABC (CD38 expression) LEN (extrapolated): 871,000 ABC
  Effect (on CD38 expression): Weak
RPMI-8226 cells; 100 μM lenalidomide vs basal
  Absolute number of ABC (CD38 expression) INCREASE: 199,000 ABC
  Fold increase (CD38 expression): 1.3 fold
AMO-1 cells [2]
  Cytotoxicity of lenalidomide alone (in words): low cytotoxity against AMO-1 cells
AMO-1 cells [3]; AMO-1 cells
  Cell killing by lenalidomide alone (in words): no effect on AMO-1 cells regarding cell killing
AMO-1 cells [3]; AMO-1 cells, Clarke et al. all 6 experiments, Chou et al. 6 out of 6
  Enhancement of MOR202 ADCC activity by LEN (in words): synergistically enhanced MOR202 ADCC activity
AMO-1 cells [3]; PBMCs and AMO-1 cells treated with LEN, MOR202 0.42 μg/ml, LEN 5 μM, average of 3 experiments
  Normalized specific killing, theoretical combination set as 1, AVERAGE (Table 3c): 0.2
AMO-1 cells [3]; only PBMCs (effector cells) treated with LEN before MOR202, LEN 10 μM, MOR202 and MOR03207 15 μg/ml, Exp. 1-3
  % dead cells (raw data, Table 4a): 17.93 % dead cells and 15.33 % dead cells and 12.98 % dead cells
AMO-1 cells [3]; only effector cells treated with LEN, MOR202 0.42 μg/ml, LEN 5 μM, average of 3 experiments
  Normalized specific killing, theoretical combination set as 1, AVERAGE (Table 4c): 0.1
[4]; [5]
  Structure Model Index (SMI), individual mouse: 2.679 and 2.667 and 2.335 and 2.560 and 2.086 and 2.619 and 2.562 and 2.592 and 2.547 and 3.125
  Trabecular Pattern Factor (Tb · Pf), individual mouse: 24.329 mm^−1 and 23.561 mm^−1 and 22.893 mm^−1 and 28.280 mm^−1 and 22.213 mm^−1 and 30.739 mm^−1 and 24.016 mm^−1 and 29.454 mm^−1 and 24.205 mm^−1 and 38.360 mm^−1
[4]; [6]
  Structure Model Index (SMI), Mean: 2.577
  Trabecular Pattern Factor (Tb · Pf), Mean: 26.805 mm^−1
[4]; non-inoculated tibia = 0%, vehicle = 100% bone lysis, MOR202 alone 12 mg/kg, LEN alone 50 mg/kg, combination 3 mg/kg MOR202 and 50 mg/kg LEN
  Reduction of bone lysis compared to vehicle control: 20%
RAMOS cells; LEN 100 mg/kg (Table 14) p.o., MOR202 1 mg/kg i.v.
  Number of mice alive at study termination (day 98): 0/7
RAMOS cells; LEN 100 mg/kg (Table 14) p.o., MOR202 1 mg/kg i.v. twice weekly, study 98 days
  Day of death (post-inoculation) Mean: 21.4 days
RAMOS cells; LEN 100 mg/kg (Table 14) p.o., MOR202 1 mg/kg i.v., vs vehicle control
  % ILS (based on median death day): 10%
RAMOS cells; LEN 100 mg/kg (Table 14; Table 13: 50 mg/kg) p.o. once daily, MOR202 1 mg/kg i.v. twice weekly, study 98 days
  Day of death (post-inoculation) Median: 22 days

— patent US9289490B2, “Combinations and uses thereof” (MORPHOSYS AG, priority 2010, dated 2016)
